Counter-ions that a name gives are not always drawn.
Tests used:
human GlyT1c transporter = biological target: T1, human GlyT1c transporter (Homo sapiens, UniProt P48067); assay: [3H]-(R)-NPTS radioligand binding assay using recombinant hGlyT1 expressing cell membranes; details: 0.5 nM [3H]-(R)-NPTS, apparent Ki via Cheng-Prusoff, read-out: [3H]-(R)-NPTS bindung Ki
T1 construct: expressed in transfected cells; host or cells: recombinant hGlyT1-expressing cells
T1 sequence (P48067 1-706): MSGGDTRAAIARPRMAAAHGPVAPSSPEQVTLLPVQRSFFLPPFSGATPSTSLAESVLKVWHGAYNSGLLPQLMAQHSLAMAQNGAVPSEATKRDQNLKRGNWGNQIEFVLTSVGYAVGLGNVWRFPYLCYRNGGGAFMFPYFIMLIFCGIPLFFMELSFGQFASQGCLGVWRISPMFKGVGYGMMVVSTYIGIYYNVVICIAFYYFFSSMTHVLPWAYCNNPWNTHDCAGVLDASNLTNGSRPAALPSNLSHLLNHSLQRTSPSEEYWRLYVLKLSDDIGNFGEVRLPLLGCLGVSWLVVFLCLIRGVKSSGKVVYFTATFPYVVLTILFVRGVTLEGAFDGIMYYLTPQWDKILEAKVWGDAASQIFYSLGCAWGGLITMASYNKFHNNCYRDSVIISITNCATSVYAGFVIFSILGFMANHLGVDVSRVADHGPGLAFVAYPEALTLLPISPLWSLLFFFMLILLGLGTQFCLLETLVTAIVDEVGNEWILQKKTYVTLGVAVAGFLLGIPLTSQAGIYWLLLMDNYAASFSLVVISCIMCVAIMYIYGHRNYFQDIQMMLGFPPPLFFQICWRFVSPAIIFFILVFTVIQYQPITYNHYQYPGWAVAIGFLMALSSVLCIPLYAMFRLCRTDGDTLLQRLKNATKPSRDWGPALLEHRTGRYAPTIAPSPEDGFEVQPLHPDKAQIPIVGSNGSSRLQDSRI
How it was run: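 Membranes expressing human GlyT1c (50 μg/ml protein) were incubated with 0.5 nM [3H]-(R)-NPTS in pH 7.5 HEPES/NaCl buffer with 1% DMSO for 1 h at room temperature, then filtered. Non-specific binding was defined with 10 μM Org24598, and IC50 values were converted to apparent Ki by Cheng-Prusoff.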

Human GlyT1c = biological target: T2, Human GlyT1c (Homo sapiens, UniProt P48067); assay: Glycine uptake in recombinant hGlyT1 expressing cells; assay type: cell-based; details: hGlyT1c_5_CHO cells; [3H]-glycine uptake, 60-120 min
T2 construct: expressed in transfected cells; host or cells: CHO (hGlyT1c_5_CHO clone)
T2 sequence (P48067 1-706): T1 sequence (P48067 1-706)
How it was run: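 Recombinant hGlyT1c CHO cells were washed in HBSS with 5 mM L-alanine, then given inhibitor and [3H]-glycine. Uptake was counted continuously by solid-phase scintillation for up to 3 h, with nonspecific uptake defined by 10 μM Org24598. IC50 came from four-parameter logistic fits over the linear 60–120 min range.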

| Ki (human GlyT1c transporter) | IC50 (Human GlyT1c) | Structure (SMILES) |
| --- | --- | --- |
| ≤ 0.1 µM | ≤ 1 µM | CC(=O)NCCOc1cccc2c(NCc3ccc(Cl)c(Cl)c3)cc(C)nc12 [Example 24, N-{2-[4-(3,4-Dichlorobenzylamino)-2-methylquinolin-8-yloxy]-ethyl}-acetamide] |
| ≤ 1 µM | ≤ 1 µM | COc1cccc2c(N[C@@H](c3ccccc3)[C@@H]3CCCCN3)cc(C)nc12 [Example 54, (8-Methoxy-2-methylquinolin-4-yl)-((S)-phenyl-(S)-piperidin-2-yl-methyl)-amine] |
| ≤ 0.1 µM | ≤ 1 µM | Cc1cc(NCc2ccc(Cl)c(Cl)c2)c2cccc(OCCN3CCCC3)c2n1 [Example 52, (3,4-Dichlorobenzyl)-[2-methyl-8-(2-pyrrolidin-1-yl-ethoxy)-quinolin-4-yl]-amine] |
| ≤ 0.01 µM | ≤ 0.1 µM | COc1cccc2c(NC(CN(C)C)c3ccc(Cl)cc3)cc(C)nc12 (racemic) [Example 68, (rac)-1-(4-Chlorophenyl)-N*1*-(8-methoxy-2-methylquinolin-4-yl)-N*2*,N*2*-dimethylethane-1,2-diamine dihydrochloride] |
| ≤ 10 µM | ≤ 1000 µM | COc1cccc2c(NC(C(N)=O)c3ccccc3)cc(C)nc12 (stereo not shown) [Example 74, 2-(8-Methoxy-2-methylquinolin-4-ylamino)-2-phenylacetamide] |
| ≤ 10 µM | ≤ 100 µM | COc1cccc2c(N[C@@H](C)c3ccc(Cl)cc3)cc(C)nc12 [Example 57, [(S)-1-(4-Chlorophenyl)-ethyl]-(8-methoxy-2-methylquinolin-4-yl)-amine] |
| ≤ 0.1 µM | ≤ 10 µM | Cc1cc(NCc2ccc(Cl)cc2Cl)c2cccc(OCCN)c2n1 [Example 36, [8-(2-Aminoethoxy)-2-methylquinolin-4-yl]-(2,4-dichlorobenzyl)-amine] |
| ≤ 10 µM | ≤ 100 µM | C=CCN1CCCC[C@H]1[C@@H](Nc1cc(C)nc2c(OCCN)cccc12)c1ccccc1 [Example 34, [(S)—((S)-1-Allylpiperidin-2-yl)-phenylmethyl]-[8-(2-aminoethoxy)-2-methylquinolin-4-yl]-amine] |

Further lines, the molecule ahead of its results:

| Structure (SMILES) | Ki (human GlyT1c transporter) | IC50 (Human GlyT1c) |
| --- | --- | --- |
| CCS(=O)(=O)NCCOc1cccc2c(NCc3ccc(Cl)c(Cl)c3)cc(C)nc12 [Example 27, Ethanesulfonic {2-[4-(3,4-Dichloro-benzylamino)-2-methylquinolin-8-yloxy]-ethyl}-amide] | ≤ 0.01 µM | ≤ 0.01 µM |
| Cc1cc(NCc2ccc(Cl)c(Cl)c2)c2cccc(OCCNS(=O)(=O)c3cccnc3)c2n1 [Example 30, Pyridine-3-sulfonic {2-[4-(3,4-dichlorobenzylamino)-2-methylquinolin-8-yloxy]-ethyl}amide] | ≤ 0.01 µM | ≤ 0.1 µM |
| Cc1cc(NCc2ccc(Cl)c(Cl)c2)c2cccc(N3CCOCC3)c2n1 [Example 6, (3,4-Dichlorobenzyl)-(2-methyl-8-morpholin-4-yl-quinolin-4-yl)-amine hydrobromide] | ≤ 0.1 µM | ≤ 1 µM |
| Cc1cc(NCc2ccc(Cl)c(Cl)c2)c2cccc(NS(C)(=O)=O)c2n1 [Example 12, N-[4-(3,4-Dichlorobenzylamino)-2-methylquinolin-8-yl]-methanesulfonamide] | ≤ 1 µM | ≤ 10 µM |
| Cc1ccc(S(=O)(=O)N2CCN(c3cccc4c(NCc5ccc(Cl)c(Cl)c5)cc(C)nc34)CC2)cc1 [Example 17, (3,4-Dichlorobenzyl)-{2-methyl-8-[4-(toluene-4-sulfonyl)-piperazin-1-yl]-quinolin-4-yl}-amine] | ≤ 1 µM | ≤ 10 µM |
| Cc1cc(NCc2ccc(Cl)c(Cl)c2)c2cccc(S(N)(=O)=O)c2n1 [Example 2, 4-(3,4-Dichlorobenzylamino)-2-methylquinoline-8-sulfonamide] | ≤ 1 µM | ≤ 1000 µM |

Source: patent US8420670B2 (Abbott Laboratories, priority 2007, dated 2013)
